From PubChem BioAssay AID1963852 (Molecular Pharmacology Branch, DTP, NCI, 2024)
Several values for one entry are separate records, joined by “and”; a condition that tells them apart may be missing. Equal values may be shown once.

Test system: 282377-053-R-J1-PDC complex spheroid viability
Experiment: Anticancer human tumor 282377-053-R-J1-PDC patient-derived colon adenocarcinoma cell line growth inhibition [POLQ]
Conditions: for viability, T/C: stronger effect = lower value; for IC50: curve of compound
Description: Multicellular complex tumor spheroid response to Polymerase (POL) inhibitors (novobiocin, ART-558, RP6685) in combination with a variety of drugs and investigational agents in selected tumor cell lines
The POL inhibitors (novobiocin, ART-558, and RP6685) were evaluated both individually and in combination with standard of care and investigational anticancer small molecules within a complex spheroid model of solid tumors. . Complex spheroids include a stromal component modeled by human endothelial cells (HUVEC) and fibroblasts modeled by human mesenchymal stem cells (MSCs). The concentration ranges selected for each drug and investigational agent were based upon clinically achievable concentrations if the clinical Cmax of the agent was known.
Compounds. The drugs and investigational agents: novobiocin (NSC847541), ART-558 (NSC835418), RP-6685 (NSC848927), peposertib (NSC802822), ceralasertib (NSC780249), elimusertib (NSC800525), camonsertib (NSC841442), AZD-1390 (NSC803789), olaparib (NSC753686), talazoparib (NSC767125), rucaparib (NSC756644), sotorasib (NSC818433), MRTX-1133 (NSC836407), SN-38 (NSC673596), topotecan (NSC609699), epotoside (NSC141540), doxorubicin (NSC123127), gemcitabine (NSC613327), 5-fluorouracil (NSC19893), paclitaxel (NSC125973), vemurafenib (NSC761431), MSA-2 (NSC828583), SN-011 (NSC837082), adavosertib (NSC754352), prexasertib (NSC758257), carboplatin (NSC241240) and oxaliplatin (NSC266046), were obtained from the National Cancer Institute (NCI) Developmental Therapeutics Program Chemical Repository (21). The FDA-approved anticancer drug set is available from the Developmental Therapeutics Program at https://dtp.cancer.gov/organization/dscb/obtaining/. […] The stock solutions were prepared in dimethyl sulfoxide (DMSO, Sigma-Aldrich, St. Louis, MO, cat. D2650), except for the platinum compounds which were prepared in saline (Quality Biological, Gaithersburg, MD, cat. 114-055-101), at 800-fold the tested concentration and stored at -70 degrees C prior to their use. All drugs and investigational agents were tested over a range starting from a high concentration at or near the clinical Cmax and decreasing in half-log increments. If the clinical Cmax for an agent had not been determined, the highest concentration tested was 10 microM, except for SN-38, which was tested at a high concentration of 1 microM.
Cell Culture. All cells were maintained in an incubator at 37 degrees C and 5% CO2 with 95% humidity. The PDC lines were cultured according to standard operating procedures established by the NCI PDMR (https://pdmr.cancer.gov). Table 3 of the manuscript, lists the cell lines along with the number of the three cell types plated to form the mct-spheroids and media for tumor cell growth. After thawing, all PDC lines, except 997537-175-T-J1-PDC and 415267-285-R-J2-PDC, were cultured in Matrigel-coated flasks prepared with a working solution of 1X Ham's F-12 nutrient mix, without supplementation (Thermo Fisher Scientific, cat. 11765054), 100 U/mL penicillin-streptomycin (Thermo Fisher Scientific, cat. 15140122), and 2.5% Matrigel (Corning Inc., Corning, NY, cat. 354248) for the first three passages. The two PDC lines 997537-175-T-J1-PDC and 415267-285-R-J2-PDC were cultured on uncoated flasks. The 857933-349-R-J2-PDC line was cultured in 6C/Colon 1B media containing advanced DMEM/F-12 (Thermo Fisher Scientific, cat. 12634028), 10 mM HEPES (Thermo Fisher Scientific, cat. 15630080), 1X GlutaMAX supplement (Thermo Fisher Scientific, cat. 35050061), 0.1 mg/mL primocin (InvivoGen, San Diego, CA, cat. ant-pm-2), 10% defined fetal bovine serum, heat inactivated (HyClone Laboratories Inc., Logan, UT, cat. SH30070.03HI), 50% L-WRN conditioned media (ATCC, cat. CRL-3276), 1.25 mM N-Acetyl-L-cysteine (Sigma-Aldrich, cat. A9165), 10 mM nicotinamide (Sigma-Aldrich, cat. N0636), 1X B-27 supplement (Thermo Fisher Scientific, cat. 17504044), 1X N-2 supplement (Thermo Fisher Scientific, cat. […]
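Further: spheroids exposed to compounds for seven days.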
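Wherever viability, T/C is given: 100% = DMSO vehicle control viability.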

SMILES: C#Cc1c(F)ccc2cc(O)cc(-c3ncc4c(N5CC6CCC(C5)N6)nc(OCC56CCCN5CC(F)C6)nc4c3F)c12 (stereo unspecified)
- viability, T/C (compound 0.0316 µM): 64.6% and 97.7% and 80.6%
- viability, T/C (compound 0.1 µM): 88.7% and 85.6% and 110%
- viability, T/C (compound 0.316 µM): 112% and 102% and 114%
- viability, T/C (compound 1 µM): 99.1% and 101% and 114%
- viability, T/C (compound 3.16 µM): 84% and 93.9% and 105%
- viability, T/C (compound 10 µM): 74.8% and 83.1% and 86.3%
- IC50: > 10 µM

SMILES: C=CC(=O)N1CCN(c2nc(=O)n(-c3c(C)ccnc3C(C)C)c3nc(-c4c(O)cccc4F)c(F)cc23)C(C)C1 (stereo unspecified)
- viability, T/C (compound 0.0316 µM): 90.8% and 111% and 101%
- viability, T/C (compound 0.1 µM): 96% and 93.3% and 101%
- viability, T/C (compound 0.316 µM): 82.7% and 111% and 107%
- viability, T/C (compound 1 µM): 82.8% and 111% and 110%
- viability, T/C (compound 3.16 µM): 94% and 105% and 101%
- viability, T/C (compound 10 µM): 78.2% and 87% and 86.5%
- IC50: > 10 µM

SMILES: CC(C)n1c(=O)n(C)c2cnc3cc(F)c(-c4ccc(OCCCN5CCCCC5)nc4)cc3c21
- viability, T/C (compound 0.0316 µM): 103% and 107% and 118%
- viability, T/C (compound 0.1 µM): 133% and 106% and 113%
- viability, T/C (compound 0.316 µM): 104% and 103% and 109%
- viability, T/C (compound 1 µM): 103% and 118% and 107%
- viability, T/C (compound 3.16 µM): 104% and 114% and 103%
- viability, T/C (compound 10 µM): 104% and 108% and 105%
- IC50: > 10 µM

SMILES: CC1COCCN1c1cc(C2(O)CC3CCC(C2)O3)c2cnn(-c3ccn[nH]3)c2n1 (stereo unspecified)
- viability, T/C (compound 0.0316 µM): 79.8% and 96.8% and 76.4%
- viability, T/C (compound 0.1 µM): 77% and 69.1% and 83.1%
- viability, T/C (compound 0.316 µM): 57.1% and 59.1% and 53.6%
- viability, T/C (compound 1 µM): 29.4% and 34.3% and 49.3%
- viability, T/C (compound 3.16 µM): 27.7% and 24.9% and 49.9%
- viability, T/C (compound 10 µM): 16.7% and 22% and 41.5%
- IC50: 0.431 µM and 0.391 µM and 0.592 µM

SMILES: CCc1cc2c(N3CCc4c(cc(Cn5ccnc5)cc4-c4cn(C)nc4C(F)(F)F)C3=O)cc(C)nc2c(OC)n1
- viability, T/C (compound 0.0316 µM): 103% and 99% and 81.1%
- viability, T/C (compound 0.1 µM): 120% and 97.4% and 84.6%
- viability, T/C (compound 0.316 µM): 124% and 98% and 87.1%
- viability, T/C (compound 1 µM): 144% and 89.3% and 98.1%
- viability, T/C (compound 3.16 µM): 112% and 113% and 109%
- viability, T/C (compound 10 µM): 72.1% and 119% and 109%
- IC50: > 10 µM

SMILES: CCc1cc2c(N3CCc4c(cc(Cn5ccnc5)cc4-c4cn(C)nc4C(F)(F)F)C3=O)ccnc2c(OC)n1
- viability, T/C (compound 0.0316 µM): 128% and 102% and 81.9%
- viability, T/C (compound 0.1 µM): 138% and 96.1% and 88.3%
- viability, T/C (compound 0.316 µM): 140% and 95% and 77.2%
- viability, T/C (compound 1 µM): 129% and 82.6% and 88.5%
- viability, T/C (compound 3.16 µM): 121% and 93.2% and 89.4%
- viability, T/C (compound 10 µM): 88% and 110% and 120%
- IC50: > 10 µM

SMILES: COc1cc2cc(C(=O)CCC(=O)O)sc2cc1OC
- viability, T/C (compound 0.0316 µM): 94.6% and 86.1% and 105%
- viability, T/C (compound 0.1 µM): 98.1% and 93.6% and 93.2%
- viability, T/C (compound 0.316 µM): 108% and 97% and 105%
- viability, T/C (compound 1 µM): 111% and 96.9% and 98.6%
- viability, T/C (compound 3.16 µM): 103% and 107% and 127%
- viability, T/C (compound 10 µM): 93.6% and 102% and 101%
- IC50: > 10 µM

SMILES: COc1ccc([C@@H](O)c2cc(-c3ncnc4cc(N5CCOCC5)ccc34)c(F)cc2Cl)nn1
- viability, T/C (compound 0.0316 µM): 95.7% and 94.3% and 98.1%
- viability, T/C (compound 0.1 µM): 92.2% and 99.3% and 91.8%
- viability, T/C (compound 0.316 µM): 112% and 94.1% and 106%
- viability, T/C (compound 1 µM): 88.9% and 98.7% and 102%
- viability, T/C (compound 3.16 µM): 82.5% and 101% and 87.2%
- viability, T/C (compound 10 µM): 71.8% and 84.8% and 82.2%
- IC50: > 10 µM
